How the values were obtained:
B6μ, Heμ and CXμ mice [1] = conditions: mouse, in vivo, ip, 10 mg/kg
B6μ, Heμ and CXμ mice [2] = test: hot-plate test; type: in vivo, mouse; conditions: CXμ mice vs B6μ and Heμ littermates; 10 mg/kg intraperitoneal; 20 minutes after injection; plate 52.0°C; p<0.05

CN1CC[C@]23c4c5ccc(O)c4O[C@H]2[C@@H](O)C=C[C@H]3[C@H]1C5.Cl [morphine, Morphine hydrochloride]
latency of response to heat stimulus (drug-induced analgesia), tail-flick test (B6μ, Heμ and CXμ mice [1]): significantly shorter latency than the littermates | latency of response to heat stimulus (first jumping; drug-induced analgesia), hot-plate test (B6μ, Heμ and CXμ mice [2]): significantly shorter latency than the littermates

From US20030003050A1 (priority 2001, published 2003)
